Measurements published in article PMC12429564.

How the values were obtained:
[1] = system: hh’ (DNA, duplex) CATTTAGGACCAACACAA/TTGTGTTGGTCCTAAATG; experiment: fluorescence quenching titration, Hill fit; settings: 50 mM NaCl, 10 mM KCl, 5 mM MgCl2; Tris-HCl pH 7.4; 1.5 μM DOX titrated with nucleic acid; apparent; Hill n = 0.96 ± 0.03
[2] = system: ACCO GR20hh’ (DNA, aptamer) ACGCACCATTTGTTTAATATGTTTTTTAATTCCCCTTGTGGTGTGTTTCATTTAGGACCAACACAA/TTGTGTTGGTCCTAAATG; experiment: fluorescence quenching titration, Hill fit; settings: 50 mM NaCl, 10 mM KCl, 5 mM MgCl2; Tris-HCl pH 7.4; 1.5 μM DOX titrated with nucleic acid; apparent; Hill n = 1.58 ± 0.09
[3] = system: GR20 (DNA, aptamer) ACGCACCATTTGTTTAATATGTTTTTTAATTCCCCTTGTGGTGTGT; experiment: fluorescence quenching titration, Hill fit; settings: 50 mM NaCl, 10 mM KCl, 5 mM MgCl2; Tris-HCl pH 7.4; 1.5 μM DOX titrated with nucleic acid; apparent; Hill n = 1.13 ± 0.03
[4] = system: U31 (DNA, aptamer) ATCCAGAGTGACGCAGCATTTGTTTAATATGTTTTTTAATTCCCCTTGTGGTGTGTTGTGGACACGGTGGCTTAGT; experiment: fluorescence quenching titration, Hill fit; settings: 50 mM NaCl, 10 mM KCl, 5 mM MgCl2; Tris-HCl pH 7.4; 1.5 μM DOX titrated with nucleic acid; apparent; Hill n = 0.95 ± 0.04
[5] = target: T1, EGFR* (recombinant extracellular domain of human EGFR) (human, UniProt P00533 25-645); experiment: BLI; kon 2.0e5 M-1 s-1; koff 29e-4 s-1; possibly from the authors' earlier work [36], not marked as cited in table; BLI buffer and temperature not in the material; aptamers folded at 1 uM in PBS with 5 mM MgCl2 (95 C 5 min, slow cooling); ACCO assembled in PBS + 5 mM MgCl2 or Tris-HCl pH 7.4, 50 mM NaCl, 10 mM KCl, 5 mM MgCl2; settings: protein: recombinant; imperfect hairpins (predicted)
[6] = target: T1, EGFR* (recombinant extracellular domain …); experiment: BLI; kon 4.3e5 M-1 s-1; koff 61e-4 s-1; BLI buffer and temperature not in the material; aptamers folded at 1 uM in PBS with 5 mM MgCl2 (95 C 5 min, slow cooling); ACCO assembled in PBS + 5 mM MgCl2 or Tris-HCl pH 7.4, 50 mM NaCl, 10 mM KCl, 5 mM MgCl2; settings: protein: recombinant; imperfect hairpin (predicted)
[7] = target: T1, EGFR* (recombinant extracellular domain …); experiment: BLI; kon 3.7e5 M-1 s-1; koff 40e-4 s-1; BLI buffer and temperature not in the material; aptamers folded at 1 uM in PBS with 5 mM MgCl2 (95 C 5 min, slow cooling); ACCO assembled in PBS + 5 mM MgCl2 or Tris-HCl pH 7.4, 50 mM NaCl, 10 mM KCl, 5 mM MgCl2; settings: protein: recombinant; 18 bp duplex of S5 with 3' end of S3; GR20 part imperfect hairpin (predicted)

Molecule: COc1cccc2c1C(=O)c1c(O)c3c(c(O)c1C2=O)C[C@@](O)(C(=O)CO)C[C@@H]3O[C@H]1C[C@H](N)[C@H](O)[C@H](C)O1
- aKd [1]: 124 ± 3 nM
- aKd [2]: 26 ± 1 nM
- aKd [3]: 90 ± 3 nM
- aKd [4]: 47 ± 3 nM

B1: U31 (ssDNA)
DNA: ATCCAGAGTGACGCAGCATTTGTTTAATATGTTTTTTAATTCCCCTTGTGGTGTGTTGTGGACACGGTGGCTTAGT
- Kd [5]: 0.015 ± 0.0017 µM

Molecule: ACGCACCATTTGTTTAATATGTTTTTTAATTCCCCTTGTGGTGTGT (ssDNA) [GR20]
- Kd [6]: 0.0142 ± 0.0005 µM

B2: ACCO GR20hh' (mixed)
DNA 1: ACGCACCATTTGTTTAATATGTTTTTTAATTCCCCTTGTGGTGTGTTTCATTTAGGACCAACACAA
DNA 2: TTGTGTTGGTCCTAAATG
- Kd [7]: 0.0108 ± 0.0014 µM
